For orientation: pKd means the Kd on a negative log10 scale, so that one unit is a factor of ten.

This assay addresses T1, G-Flamp1 (cpGFP inserted into mlCNBD of the MlotiK1 channel) (Mesorhizobium japonicum, UniProt Q98GN8, P285N/S308V).
T1 construct: gene mll3241; GFP D173G plus Citrine/sfGFP mutations) inserted between residues 285 and 286; N-terminal RSET 6xHis tag kept for Kd; tag-free (SUMO cut) for crystal; E. coli; monomer
T1 sequence (Q98GN8 213-355 P285N/S308V): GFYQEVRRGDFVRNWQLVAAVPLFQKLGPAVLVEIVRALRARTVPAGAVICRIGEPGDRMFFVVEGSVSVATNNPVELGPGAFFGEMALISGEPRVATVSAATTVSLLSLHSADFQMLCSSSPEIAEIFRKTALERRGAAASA
As to the kind of experiment: fluorescence titration of purified sensor (ex […] nm), sigmoidal fit. It counts as binding.

pKd: −log10 of the molar value.

`Nc1nc2c(ncn2[C@@H]2O[C@@H]3COP(=O)(O)O[C@H]3[C@H]2O)c(=O)[nH]1` [cGMP] gave a pKd of 4.52.

The record behind these values is article PMC9468011 (Nature Communications, 2022).
